Patent US12448383B2, “Compounds and methods for treatment of viral infections” (priority 2022, dated 2025)
pEC50: −log10 of the molar value.

Key:
[1] = test system: SARS Coronavirus 2 recombinant with NanoLuc (SARS-CoV2-NLuc) in A549-hACE2 cells; assay: organism not typed; type: cell-based; settings: 48 h; read-out: SARS-CoV2 EC50
Plasma stability = type: in vitro ADME; design: unit not given here; settings: 37° C., 2 μM substrate
Method in brief: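 LC-MS (Q-Exactive, 5 ppm tolerance, 0.1% formic acid water/acetonitrile gradient) quantified compound in quenched aliquots. Aliquots were taken at 0.05, 0.5, 1, 2, 3 and 4 hr and quenched with internal-standard solution, and supernatants were diluted with water after centrifugation.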

[2] = test system: Respiratory syncytial virus recombinant with luciferase (RSV-Luc5) in HEp-2 cells; assay: microbe, parasite or virus in culture; type: cell-based; settings: human respiratory syncytial virus, HEp-2, 72 h, read-out: RSV Hep2 EC50
[3] = CC50 MT4 cytotoxicity (Cell-Titer Glo); type: cell-based; settings: human
Method in brief: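 CC50 values are the concentrations cutting viability by 50%, fitted by non-linear regression against untreated (100%) and 2 μM puromycin (0%) controls. Cell-Titer Glo luminescence measured after 4-5 days at 37° C exposure of uninfected MT-4 and HEp-2 cells to 3-fold dilutions spanning 15 nM to 100,000 nM.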

[4] = test system: Caco-2 cells (clone C2BBe1); assay: CACO-2 permeability; type: in vitro ADME; design: unit not given here; settings: for DM Caco2 A to B: apical to basolateral, donor pH 6.5, receiver pH 7.4; for DM Caco2 B to A: basolateral to apical
Method in brief: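 A-to-B and B-to-A flux measured by LC-MS/MS from receiver samples taken at 1 and 2 h, with donor sampled at 0 and 2 h and recovery checked. Buffers: pH 6.5 HBSS with 200 μM BNPP on the donor side, pH 7.4 with BSA on the receiver side. Monolayers were 21-day cultures, TEER-verified, in duplicate wells.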

[5] = GI S9 stability - no PMSF; type: in vitro ADME; settings: pH 7.4; human intestinal S9, PMSF-free; read-out: GIS9-HUMAN-NoPMSF T1/2
Method in brief: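 Stability was assessed by Q-Exactive LC-MS peak area ratios against internal standard, tracking loss of parent and appearance of nucleoside metabolite Reference Compound A. Incubations used 2 μM compound in 1 mg/mL intestinal S9 without PMSF (PBS, pH 7.4), with six samples taken over 120 min.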

[6] = test system: Respiratory syncytial virus recombinant with luciferase (RSV-Luc5) in Normal Human Bronchial Epithelial (NHBE) cells; assay: microbe, parasite or virus in culture; type: cell-based; settings: 72 h, read-out: RSV NHBE EC50

## CC1(C)CC(OC(=O)OC[C@H]2O[C@@](C#N)(c3ccc4c(N)ncnn34)[C@H](O)[C@@H]2O)C1 [Compound 31, ((2R,3S,4R,5R)-5-(4-aminopyrrolo[2,1-f][1,2,4]triazin-7-yl)-5-cyano-3,4-dihydroxytetrahydrofuran-2-yl)methyl (3,3-dimethylcyclobutyl) carbonate]
[1]
  pEC50: 5.97
Plasma stability
  STA Human Plasma 37: 32.4
[2]
  pEC50: 6.49
[3]
  CC50: > 50 µM
[4]
  DM Caco2 A to B: 0.68
  DM Caco2 B to A: 13
[5]
  half-life at 2 µM: 51.4 s
[6]
  pEC50: 6.10

## N#C[C@@]1(c2ccc3c(N)ncnn23)O[C@H](COC(=O)OC2CCCCC2)[C@@H](O)[C@H]1O [Compound 35, ((2R,3S,4R,5R)-5-(4-aminopyrrolo[2,1-f][1,2,4]triazin-7-yl)-5-cyano-3,4-dihydroxytetrahydrofuran-2-yl)methyl cyclohexyl carbonate]
[1]
  pEC50: 5.72
Plasma stability
  STA Human Plasma 37: 139.6
[2]
  pEC50: 6.19
[3]
  CC50: > 50 µM
[4]
  DM Caco2 A to B: 0.95
  DM Caco2 B to A: 10.64
[5]
  half-life at 2 µM: 35.6 s
[6]
  pEC50: 6.00

## N#C[C@@]1(c2ccc3c(N)ncnn23)O[C@H](COC(=O)OC2CCOCC2)[C@@H](O)[C@H]1O [Compound 50, ((2R,3S,4R,5R)-5-(4-aminopyrrolo[2,1-f][1,2,4]triazin-7-yl)-5-cyano-3,4-dihydroxytetrahydrofuran-2-yl)methyl (tetrahydro-2H-pyran-4-yl) carbonate]
[1]
  pEC50: 4.69
Plasma stability
  STA Human Plasma 37: 430.4
[2]
  pEC50: 5.72
[3]
  CC50: > 50 µM
[4]
  DM Caco2 A to B: 0.13
  DM Caco2 B to A: 2.76
[5]
  half-life at 2 µM: 914 s
[6]
  pEC50: 5.86

## N#C[C@@]1(c2ccc3c(N)ncnn23)O[C@H](COC(=O)OCC23CCC(CC2)C3)[C@@H](O)[C@H]1O [Compound 52, ((2R,3S,4R,5R)-5-(4-aminopyrrolo[2,1-f][1,2,4]triazin-7-yl)-5-cyano-3,4-dihydroxytetrahydrofuran-2-yl)methyl (bicyclo[2.2.1]heptan-1-ylmethyl) carbonate]
[1]
  pEC50: 6.24
Plasma stability
  STA Human Plasma 37: 85
[2]
  pEC50: 7.00
[3]
  CC50: 38.8 µM
[4]
  DM Caco2 A to B: 6.95
  DM Caco2 B to A: 13.04
[5]
  half-life at 2 µM: 39.3 s
[6]
  pEC50: 6.04

## N#C[C@@]1(c2ccc3c(N)ncnn23)O[C@H](COC(=O)OCC2CCC2)[C@@H](O)[C@H]1O [Compound 53, ((2R,3S,4R,5R)-5-(4-aminopyrrolo[2,1-f][1,2,4]triazin-7-yl)-5-cyano-3,4-dihydroxytetrahydrofuran-2-yl)methyl (cyclobutylmethyl) carbonate]
[1]
  pEC50: 6.18
Plasma stability
  STA Human Plasma 37: 13
[2]
  pEC50: 7.01
[3]
  CC50: > 50 µM
[4]
  DM Caco2 A to B: 2.34
  DM Caco2 B to A: 10.58
[5]
  half-life at 2 µM: 38.2 s
[6]
  pEC50: 6.08

## CC1(OC(=O)OC[C@H]2O[C@@](C#N)(c3ccc4c(N)ncnn34)[C@H](O)[C@@H]2O)CCCC1 [Compound 56, ((2R,3S,4R,5R)-5-(4-aminopyrrolo[2,1-f][1,2,4]triazin-7-yl)-5-cyano-3,4-dihydroxytetrahydrofuran-2-yl)methyl (1-methylcyclopentyl) carbonate]
[1]
  pEC50: 5.60
Plasma stability
  STA Human Plasma 37: 77.644
[2]
  pEC50: 5.90
[3]
  CC50: > 50 µM
[4]
  DM Caco2 A to B: 0.35
  DM Caco2 B to A: 1.83
[5]
  half-life at 2 µM: 990 s
[6]
  pEC50: 5.92

## CCC(C)(CC)OC(=O)OC[C@H]1O[C@@](C#N)(c2ccc3c(N)ncnn23)[C@H](O)[C@@H]1O [Compound 69, ((2R,3S,4R,5R)-5-(4-aminopyrrolo[2,1-f][1,2,4]triazin-7-yl)-5-cyano-3,4-dihydroaytetrahydrofuran-2-yl)methyl (3-methylpentan-3-yl) carbonate]
[1]
  pEC50: 5.55
Plasma stability
  STA Human Plasma 37: 294.49
[2]
  pEC50: 5.98
[3]
  CC50: > 50 µM
[4]
  DM Caco2 A to B: 1
  DM Caco2 B to A: 4.74
[5]
  half-life at 2 µM: 2920 s
[6]
  pEC50: 6.01

## CCC(C)(C)OC(=O)OC[C@H]1O[C@@](C#N)(c2ccc3c(N)ncnn23)[C@H](O)[C@@H]1O [Compound 70, ((2R,3S,4R,5R)-5-(4-aminopyrrolo[2,1-f][1,2,4]triazin-7-yl)-5-cyano-3,4-dihydroxytetrahydrofuran-2-yl)methyl tert-pentyl carbonate]
[1]
  pEC50: 5.55
Plasma stability
  STA Human Plasma 37: 1399.3
[2]
  pEC50: 5.76
[3]
  CC50: > 50 µM
[4]
  DM Caco2 A to B: 0.88
  DM Caco2 B to A: 6.91
[5]
  half-life at 2 µM: 4380 s
[6]
  pEC50: 5.66

## CC1(C)C2CCC1(C)C(OC(=O)OC[C@H]1O[C@@](C#N)(c3ccc4c(N)ncnn34)[C@H](O)[C@@H]1O)C2 (stereo partly drawn) [Compound 71, ((2R,3S,4R,5R)-5-(4-aminopyrrolo[2,1-f][1,2,4]triazin-7-yl)-5-cyano-3,4-dihydroxytetrahydrofuran-2-yl)methyl (1,7,7-trimethylbicyclo[2.2.1]heptan-2-yl) carbonate]
[1]
  pEC50: 5.11
Plasma stability
  STA Human Plasma 37: 1584
[2]
  pEC50: 5.52
[3]
  CC50: 47.8 µM
[4]
  DM Caco2 A to B: 4.02
  DM Caco2 B to A: 13.65
[5]
  half-life at 2 µM: 1550 s
[6]
  pEC50: 6.27

## N#C[C@@]1(c2ccc3c(N)ncnn23)O[C@H](COC(=O)OCC23CC(C2)C3)[C@@H](O)[C@H]1O [Compound 72, ((2R,3S,4R,5R)-5-(4-aminopyrrolo[2,1-f][1,2,4]triazin-7-yl)-5-cyano-3,4-dihydroxytetrahydrofuran-2-yl)methyl (bicyclo[1.1.1]pentan-1-ylmethyl) carbonate]
[1]
  pEC50: 5.95
Plasma stability
  STA Human Plasma 37: 31.1
[2]
  pEC50: 6.11
[3]
  CC50: > 50 µM
[4]
  DM Caco2 A to B: 2.52
  DM Caco2 B to A: 10.69
[5]
  half-life at 2 µM: 37.4 s
[6]
  pEC50: 5.74

## N#C[C@@]1(c2ccc3c(N)ncnn23)O[C@H](COC(=O)OC2CC(F)(F)C2)[C@@H](O)[C@H]1O [Compound 73, ((2R,3S,4R,5R)-5-(4-aminopyrrolo[2,1-f][1,2,4]triazin-7-yl)-5-cyano-3,4-dihydroxytetrahydrofuran-2-yl)methyl (3,3-difluorocyclobutyl) carbonate]
[1]
  pEC50: 5.72
Plasma stability
  STA Human Plasma 37: 70
[2]
  pEC50: 6.69
[3]
  CC50: > 50 µM
[4]
  DM Caco2 A to B: 0.48
  DM Caco2 B to A: 4.69
[5]
  half-life at 2 µM: 35.3 s
[6]
  pEC50: 5.96

## N#C[C@@]1(c2ccc3c(N)ncnn23)O[C@H](COC(=O)OC2CCC(F)(F)CC2)[C@@H](O)[C@H]1O [Compound 84, ((2R,3S,4R,5R)-5-(4-aminopyrrolo[2,1-f][1,2,4]triazin-7-yl)-5-cyano-3,4-dihydroxytetrahydrofuran-2-yl)methyl (4,4-difluorocyclohexyl) carbonate]
[1]
  pEC50: 5.81
Plasma stability
  STA Human Plasma 37: 327.2
[2]
  pEC50: 6.51
[3]
  CC50: > 50 µM
[4]
  DM Caco2 A to B: 0.27
  DM Caco2 B to A: 6.99
[5]
  half-life at 2 µM: 57.3 s
[6]
  pEC50: 6.69

## C[C@@H](OC(=O)OC[C@H]1O[C@@](C#N)(c2ccc3c(N)ncnn23)[C@H](O)[C@@H]1O)c1ccccc1 [Compound 87, ((2R,3S,4R,5R)-5-(4-aminopyrrolo[2,1-f][1,2,4]triazin-7-yl)-5-cyano-3,4-dihydroxytetrahydrofuran-2-yl)methyl ((R)-1-phenylethyl) carbonate]
[1]
  pEC50: 5.98
Plasma stability
  STA Human Plasma 37: 28.7
[2]
  pEC50: 6.46
[3]
  CC50: > 50 µM
[4]
  DM Caco2 A to B: 1.79
  DM Caco2 B to A: 10.98
[5]
  half-life at 2 µM: 74.9 s
[6]
  pEC50: 6.25

## C[C@H](OC(=O)OC[C@H]1O[C@@](C#N)(c2ccc3c(N)ncnn23)[C@H](O)[C@@H]1O)c1ccccc1 [Compound 88, ((2R,3S,4R,5R)-5-(4-aminopyrrolo[2,1-f][1,2,4]triazin-7-yl)-5-cyano-3,4-dihydroxytetrahydrofuran-2-yl)methyl ((S)-1-phenylethyl) carbonate]
[1]
  pEC50: 5.79
Plasma stability
  STA Human Plasma 37: 1584
[2]
  pEC50: 6.42
[3]
  CC50: > 50 µM
[4]
  DM Caco2 A to B: 2.72
  DM Caco2 B to A: 12.82
[5]
  half-life at 2 µM: 295 s
[6]
  pEC50: 7.15

## CC[C@H](C)OC(=O)OC[C@H]1O[C@@](C#N)(c2ccc3c(N)ncnn23)[C@H](O)[C@@H]1O [Compound 90, ((2R,3S,4R,5R)-5-(4-aminopyrrolo[2,1-f][1,2,4]triazin-7-yl)-5-cyano-3,4-dihydroxytetrahydrofuran-2-yl)methyl ((S)-sec-butyl) carbonate]
[1]
  pEC50: 5.73
Plasma stability
  STA Human Plasma 37: 169.9
[2]
  pEC50: 6.60
[3]
  CC50: > 50 µM
[4]
  DM Caco2 A to B: 0.9
  DM Caco2 B to A: 7.41
[5]
  half-life at 2 µM: 35.5 s
[6]
  pEC50: 6.74
